Results reported in ChEMBL document CHEMBL3352027, “Pharmacologically active metabolites, combination screening and target identification-driven drug repositioning in antituberculosis drug discovery” (2014).
In brackets after ≈: the same amount, converted by molar mass.

Tested on: Mycobacterium tuberculosis
Assay: Antitubercular activity against drug-resistant Mycobacterium tuberculosis
Assay type: functional

Structure (SMILES)	MIC [µg/mL]
CN[C@@H]1[C@H](O)[C@H](NC)[C@H]2O[C@]3(O)[C@H](O[C@@H]2[C@H]1O)O[C@H](C)C[C@H]3NC(=O)Cc1ccccn1	1.6 (≈ 3.54 µM)
CN[C@@H]1[C@H](O)[C@H](NC)[C@H]2O[C@]3(O)[C@H](O[C@@H]2[C@H]1O)O[C@H](C)C[C@H]3NC(=O)Cc1ccccc1	1.6 (≈ 3.54 µM)
CN[C@@H]1[C@H](O)[C@H](NC)[C@H]2O[C@]3(O)[C@H](O[C@@H]2[C@H]1O)O[C@H](C)C[C@H]3NC(=O)Cc1ccc(F)cn1	1.6 (≈ 3.4 µM)
CN[C@@H]1[C@H](O)[C@H](NC)[C@H]2O[C@]3(O)[C@H](O[C@@H]2[C@H]1O)O[C@H](C)C[C@H]3NC(=O)Cc1ccc(Cl)cn1	1.6 (≈ 3.29 µM)
CN[C@@H]1[C@H](O)[C@H](NC)[C@H]2O[C@]3(O)[C@H](O[C@@H]2[C@H]1O)O[C@H](C)C[C@H]3NC(=O)CNC(C)(C)C	1.6 (≈ 3.58 µM)
CN[C@@H]1[C@H](O)[C@H](NC)[C@H]2O[C@]3(O)[C@H](O[C@@H]2[C@H]1O)O[C@H](C)C[C@H]3NC(=O)Cc1cscn1	1.6 (≈ 3.49 µM)
CN[C@@H]1[C@H](O)[C@H](NC)[C@H]2O[C@]3(O)[C@H](O[C@@H]2[C@H]1O)O[C@H](C)C[C@H]3NC(=O)Cc1cc(Cl)ccn1	1.6 (≈ 3.29 µM)
